# Values quoted from earlier work in patent US12070440B2, “Topical formulations of nitroglycerin” (PERMEATUS, INC., priority 2022, dated 2024).
# Read-outs that look alike come from different tables or passages of the source.
smiles,measurement,setting,value
"O=[N+]([O-])OCC(CO[N+](=O)[O-])O[N+](=O)[O-] [nitroglycerin, 1,2,3-trinitroxypropane]","decomposition by denitration to 1,2-GDN",acidic environment (0.1N HCl),faster
same,"decomposition by denitration to 1,2-GDN",pH 7.4,slow
same,"decomposition by denitration to 1,2-GDN",pH values of 11 and above,rapid
